Data taken from US20130252943A1, “BICYCLIC OXAZOLE LACTAMS AS ALLOSTERIC MODULATORS OF MGLUR5 RECEPTORS” (VANDERBILT UNIVERSITY, priority 2012, published 2013).

Assays:
human mGluR5 = human mGluR5 (Homo sapiens, UniProt P41594); assay: Cell-based functional Ca2+ mobilization assay (FDSS), potentiation of glutamate EC20 response, H10H cell line; settings: HEK H10H cells; for Emax: maximum average response at a single concentration, as percent of maximal glutamate response, glutamate EC20; for EC50: positive allosteric modulation in presence of glutamate EC20, concentration in mol/L
Source text: Human mGluR5a cDNA in pCMV6-XL6 mammalian expression plasmid was purchased from OriGene Technologies, Inc. (catalogue number SC326357) and subcloned into pcDNA3.1(−). Human embryonic kidney (HEK)293A cells were then transfected with human mGluR5a pcDNA3.1(−) using LipofectAmine-2000 (Invitrogen) and monoclones were selected and tested for functional response using a Ca^2+ mobilization assay. Monoclones were named for the species (“H” for human) plus the location on the plate (e.g. “10H”).
HEK cells transfected with the human mGluR5a receptor (H10H or H12H cell line) were plated at 15,000 cells/well in clear-bottomed poly-D-lysinecoated assay plates (BD Falcon) in glutamate-glutamine-free growth medium and incubated overnight at 37° C. and 5% CO2. Cell-lines used were either the H10H or H12H cell-lines expressing the human mGluR5 receptor. The following day, the growth medium was removed and the cells were washed with assay buffer containing 1× Hank's balanced salt solution (Invitrogen, Carlsbad, Calif.), 20 mM HEPES, 2.5 mM probenecid, pH 7.4 and left with 20 μL of this reagent. Following this step, the cells were loaded with calcium indicator dye, fluo-4 AM, to a final concentration of 2 μM and incubated for 40-45 min at 37° C. The dye solution was removed and replaced with assay buffer. Cell plates were held for 10-15 min at room temperature and were then loaded into the Functional Drug Screening System 6000 (FDSS 6000, Hamamatsu, Japan).
After establishment of a fluorescence baseline for about 3 seconds, the compounds of the present invention were added to the cells, and the response in cells was measured. 2.3 minutes later an EC20 concentration of the mGluR5 receptor agonist glutamate was added to the cells, and the response of the cells was measured for about 1.7 minutes. All test compounds were dissolved and diluted to a concentration of 10 mM in 100% DMSO and then serially diluted into assay buffer for a 2× stock solution in 0.6% DMSO; stock compounds were then added to the assay for a final DMSO concentration of 0.3% after the first addition to the assay well. Calcium fluorescence measures were recorded as fold over basal fluorescence; raw data was then normalized to the maximal response to glutamate.
The concentration-response curves of compounds of the present invention, obtained in the presence of EC20 of mGluR5 receptor agonist glutamate to determine positive allosteric modulation, were generated using Microsoft Excel with IDBS XLFit add-ins. The raw data file containing all time points was used as the data source in the analysis template. This was saved by the FDSS as a tab-delimited text file. Data were normalized using a static ratio function (F/F0) for each measurement of the total 350 values per well divided by each well's initial value. Data was then reduced as to peak amplitudes (Max—Initial Min) using a time range that starts approximately 1 second after the glutamate EC20 addition and continues for approximately 40 seconds. This is sufficient time to capture the peak amplitude of the cellular Calcium response. Individual amplitudes were expressed as % EMax by multiplying each amplitude by 100 and then dividing the product by the mean of the amplitudes derived from the glutamate ECMax-treated wells. pEC50 values for test compounds were generated by fitting the normalized values versus the log of the test compound concentration (in mol/L) using a 4 parameter logistic equation where none of the parameters were fixed. Each of the three values collected at each concentration of test compound were weighted evenly. Individual values falling outside the 95% prediction limits of the curve fit were automatically excluded from the fit. […] These two methods are in good agreement for curves with a clear plateau at the high concentration range. […] For consistency purposes across the range of potencies observed, all EMax values reported in this application are calculated using the maximum average response at a single concentration. […]

human mGluR5, sequence (P41594 21-1180 isoform P41594-2 limits assumed): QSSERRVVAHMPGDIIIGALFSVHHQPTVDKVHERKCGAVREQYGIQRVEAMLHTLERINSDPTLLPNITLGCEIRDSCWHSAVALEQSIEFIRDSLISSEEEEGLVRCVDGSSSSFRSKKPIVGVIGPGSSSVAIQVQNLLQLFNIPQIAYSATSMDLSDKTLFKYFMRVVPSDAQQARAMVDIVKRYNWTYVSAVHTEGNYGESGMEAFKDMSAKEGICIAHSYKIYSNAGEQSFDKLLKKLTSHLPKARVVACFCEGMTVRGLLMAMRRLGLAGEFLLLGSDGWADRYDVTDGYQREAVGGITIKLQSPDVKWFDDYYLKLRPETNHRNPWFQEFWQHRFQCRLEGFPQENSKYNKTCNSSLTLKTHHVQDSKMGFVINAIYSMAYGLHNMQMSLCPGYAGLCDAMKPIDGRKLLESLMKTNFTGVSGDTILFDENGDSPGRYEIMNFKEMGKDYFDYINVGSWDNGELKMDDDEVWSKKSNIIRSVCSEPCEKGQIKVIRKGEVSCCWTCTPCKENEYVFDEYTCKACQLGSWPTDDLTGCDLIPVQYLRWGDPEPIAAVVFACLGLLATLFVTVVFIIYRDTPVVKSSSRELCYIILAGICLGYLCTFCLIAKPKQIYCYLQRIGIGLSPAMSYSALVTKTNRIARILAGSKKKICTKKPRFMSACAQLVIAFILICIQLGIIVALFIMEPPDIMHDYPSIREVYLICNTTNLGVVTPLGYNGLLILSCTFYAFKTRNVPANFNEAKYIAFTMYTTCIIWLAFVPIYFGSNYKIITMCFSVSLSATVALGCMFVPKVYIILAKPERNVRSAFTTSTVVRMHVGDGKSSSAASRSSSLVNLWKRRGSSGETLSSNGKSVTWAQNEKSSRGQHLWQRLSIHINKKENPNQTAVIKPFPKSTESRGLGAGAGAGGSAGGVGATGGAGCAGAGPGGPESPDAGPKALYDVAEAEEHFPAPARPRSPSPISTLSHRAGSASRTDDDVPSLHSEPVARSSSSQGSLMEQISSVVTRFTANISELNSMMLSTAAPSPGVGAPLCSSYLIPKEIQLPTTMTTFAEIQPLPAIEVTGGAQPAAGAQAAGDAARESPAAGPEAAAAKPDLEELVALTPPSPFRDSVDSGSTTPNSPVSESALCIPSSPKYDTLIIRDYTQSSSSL

Row | Compound | Emax (human mGluR5) [%] | EC50 (human mGluR5) [nM] | melting point [°C]
1 | CC1Cc2nc(COc3ccccc3)oc2C(=O)N1c1ccc(F)cc1 (racemic) [Compound B27, (rac)-5-(4-fluoro-phenyl)-6-methyl-2-phenoxymethyl-6,7-dihydro-5H-oxazolo[5,4-c]pyridin-4-ONE] | 64 | 575 | –
2 | O=C1c2oc(COc3ccccc3)nc2CCN1c1ccc(F)cc1 [Compound B1, 5-(4-fluoro-phenyl)-2-phenoxymethyl-6,7-dihydro-5H-oxazolo[5,4-c]pyridin-4-one] | 83 | 447 | 135.8
3 | O=C1c2oc(COc3ccccc3)nc2CCN1c1ccccc1F [Compound B2] | 74 | 1100 | 116.1
4 | O=C1c2oc(COc3ccccc3)nc2CCN1c1cccc(F)c1 [Compound B3] | 71 | 1320 | 132.5
5 | O=C1c2oc(COc3ccccc3)nc2CCN1c1cccc(F)c1F [Compound B4] | 75 | 646 | 137.2
6 | O=C1c2oc(COc3ccccc3)nc2CCN1c1c(F)cccc1F [Compound B5] | 73 | 891 | –
7 | O=C1c2oc(COc3ccccc3)nc2CCN1c1ccc(F)c(F)c1 [Compound B6] | 77 | 501 | 151.7
8 | O=C1c2oc(COc3ccccc3)nc2CCN1c1cc(F)cc(F)c1 [Compound B7] | 63 | 1510 | 150.7
9 | O=C1c2oc(COc3ccccc3)nc2CCN1c1ccccn1 [Compound B8] | 32 | > 30200 | 123.3
10 | O=C1c2oc(COc3ccccc3)nc2CCN1c1cccnc1 [Compound B9] | 38 | > 30200 | 188.7
11 | O=C1c2oc(COc3ccccc3)nc2CCN1c1ccncc1 [Compound B10] | 49 | > 10000 | 130.9
12 | O=C1c2oc(COc3ccccc3)nc2CCN1c1ccc(F)cn1 [Compound B11] | 62 | 2140 | 131.9
13 | O=C1c2oc(COc3ccccc3)nc2CCN1c1cncc(F)c1 [Compound B12] | 27 | > 30200 | 133.1
14 | O=C1c2oc(COc3ccccc3)nc2CCN1c1ccccc1 [Compound B13] | 76 | 1120 | 131.7
15 | Cc1cccc(N2CCc3nc(COc4ccccc4)oc3C2=O)n1 [Compound B14] | 53 | > 10000 | 116.3
16 | Cc1ccc(N2CCc3nc(COc4ccccc4)oc3C2=O)nc1 [Compound B15] | 61 | > 10000 | 132.4

Row | Compound | Emax (human mGluR5) [%] | EC50 (human mGluR5) [nM] | melting point [°C]
17 | Cc1ccnc(N2CCc3nc(COc4ccccc4)oc3C2=O)c1 [Compound B16] | 38 | > 10000 | > 300
18 | Cc1cccnc1N1CCc2nc(COc3ccccc3)oc2C1=O [Compound B17] | 43 | > 10000 | 138.8
19 | Cc1cc(N2CCc3nc(COc4ccccc4)oc3C2=O)ncc1F [Compound B21] | 56 | > 10000 | 125.7
20 | COc1nc(N2CCc3nc(COc4ccccc4)oc3C2=O)ncc1F [Compound B22, 5-(5-fluoro-4-methoxy-pyrimidin-2-yl)-2-phenoxymethyl-6,7-dihydro-5H-oxazolo[5,4-c]pyridin-4-one] | 65 | 1290 | 216.7
21 | COc1nccc(N2CCc3nc(COc4ccccc4)oc3C2=O)n1 [Compound B23] | 53 | 3090 | 142
22 | Cc1cncc(N2CCc3nc(COc4ccccc4)oc3C2=O)n1 [Compound B24] | 44 | > 10000 | 138.8
23 | COc1nccnc1N1CCc2nc(COc3ccccc3)oc2C1=O [Compound B25] | 47 | > 10000 | 131.1
24 | CC1CN(c2ccc(F)cc2)C(=O)c2oc(COc3ccccc3)nc21 (stereo not shown) [Compound B28] | 79 | 646 | –
25 | O=C1NCCc2nc(COc3ccccc3)oc21 [Compound B29, 2-phenoxymethyl-6,7-dihydro-5H-oxazolo[5,4-c]pyridin-4-one] | 21 | > 30200 | 148.5
26 | CN1CCc2nc(COc3ccccc3)oc2C1=O [Compound B33, 5-methyl-2-phenoxymethyl-6,7-dihydro-5H-oxazolo[5,4-c]pyridin-4-one] | 35 | > 30200 | –
27 | O=C1c2oc(COc3ccccc3)nc2CCN1CC1CC1 [Compound B34] | 68 | 3470 | 119.2
28 | C[C@@H](N1CCc2nc(COc3ccccc3)oc2C1=O)C(C)(C)C [Compound B35, (R)-2-phenoxymethyl-5-(1,2,2-trimethyl-propyl)-6,7-dihydro-5H-oxazolo[5,4-c]pyridin-4-one] | 54 | 977 | –
29 | O=C1c2oc(COc3ccccc3)nc2CCN1Cc1ccccc1 [Compound B36] | 59 | 891 | –
30 | O=C1NCCCc2nc(COc3ccccc3)oc21 [Compound B37, 2-phenoxymethyl-5,6,7,8-tetrahydro-3-oxa-1,5-diaza-azulen-4-one] | 21 | > 30200 | –
31 | CN1CCCc2nc(COc3ccccc3)oc2C1=O [Compound B39] | 25 | > 30200 | –
